Here are results for five molecules from BindingDB's records for doi:10.1021/acs.jmedchem.0c00964 (Philipps-University, 2020).

One may read the Ki as the equilibrium dissociation constant of an inhibitor or competing ligand from its target. Low values mean tighter binding, high ones weaker binding.

For the assay, the target named is T1, Orexin/Hypocretin receptor type 1 (Homo sapiens, UniProt O43613).
T1 sequence (O43613 whole entry): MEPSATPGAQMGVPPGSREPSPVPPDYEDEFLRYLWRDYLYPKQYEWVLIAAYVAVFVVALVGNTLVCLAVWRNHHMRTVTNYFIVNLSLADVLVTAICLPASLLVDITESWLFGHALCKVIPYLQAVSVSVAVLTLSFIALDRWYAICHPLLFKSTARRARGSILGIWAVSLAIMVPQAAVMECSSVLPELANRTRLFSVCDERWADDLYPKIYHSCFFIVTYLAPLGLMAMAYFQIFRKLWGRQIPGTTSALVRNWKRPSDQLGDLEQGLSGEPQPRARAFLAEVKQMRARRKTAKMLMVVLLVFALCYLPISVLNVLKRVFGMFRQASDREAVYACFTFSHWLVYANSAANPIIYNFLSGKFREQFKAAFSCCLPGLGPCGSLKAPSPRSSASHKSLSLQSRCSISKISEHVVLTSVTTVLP
In words: Displacement of [3H]-[…] from human orexin 1 receptor expressed in CHO cells incubated for 2 hrs by whole cell radioligand binding assay. A general note: In a radioligand displacement assay an active substance lowers the binding of a labelled ligand.

SMILES strings stand for the structures.

Molecule `O=C1NC(=O)C(=Cc2c(OCc3ccccc3F)ccc3ccccc23)C(=O)N1` had a Ki of 33.1 µM.

Consider `O=C(/C=C/c1cccc(F)c1)N1CCOc2c(cc(-c3cccnc3)cc2OC[C@H]2CCCCO2)C1`, for which the Ki came to 21.4 µM.

In turn, `O=C(c1sc2cccc(F)c2c1Cl)N1CCN(Cc2ccco2)CC1` had an inhibition constant Ki of 43.7 µM.

The molecule `O=C1CCCN1c1cccc(C(=O)N(Cc2ccc(F)cc2)C2CC2)c1` yielded a Ki of 32.4 µM.

Take `COc1ccc(C(=O)Oc2cc(=O)n(-c3ccccc3)c3c2CCCC3)cc1`: the inhibitory constant (Ki) came to 24.5 µM.
